Test results taken from patent publication US7268128B2, “1,3,5-trisubstituted-5-phenyl and 5-pyridyl pyrazolopyrimidinone derivatives having PDE7 inhibiting action” (Ausbio Pharma Co., Ltd., priority 2001, dated 2007).
Counter-ions that a name gives are not always drawn.

Molecular target: T1, PDE7 (type VII phosphodiesterase) (Homo sapiens, UniProt Q13946)
T1 construct: endogenous in cells; host or cells: MOLT-4 (ATCC CRL-1582), soluble fraction, HiTrapQ anion-exchange fraction
Test: PDE7 inhibiting activity (3H-cAMP hydrolysis, active fraction from MOLT-4 cells)
Assay type: biochemical
Settings: PDE7 fraction from MOLT-4 cells, 0.064 μM cAMP, 10 μM rolipram present, 2 hours at 25° C.; read-out: IC50 values for phosphodiesterase inhibiting activities (PDE7)
Method in brief: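 PDE7 from MOLT-4 cell soluble fraction, HiTrapQ NaCl-gradient purified. Compounds reacted 2 h at 25° C in 20 mM tris-HCl pH 7.5, 1 mM MgCl2, 0.1 μCi 3H-cAMP (0.064 μM cAMP), 10 μM rolipram, 5′-nucleotidase; QAE-Sephadex-separated supernatant counted.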

T1 sequence (Q13946 whole entry): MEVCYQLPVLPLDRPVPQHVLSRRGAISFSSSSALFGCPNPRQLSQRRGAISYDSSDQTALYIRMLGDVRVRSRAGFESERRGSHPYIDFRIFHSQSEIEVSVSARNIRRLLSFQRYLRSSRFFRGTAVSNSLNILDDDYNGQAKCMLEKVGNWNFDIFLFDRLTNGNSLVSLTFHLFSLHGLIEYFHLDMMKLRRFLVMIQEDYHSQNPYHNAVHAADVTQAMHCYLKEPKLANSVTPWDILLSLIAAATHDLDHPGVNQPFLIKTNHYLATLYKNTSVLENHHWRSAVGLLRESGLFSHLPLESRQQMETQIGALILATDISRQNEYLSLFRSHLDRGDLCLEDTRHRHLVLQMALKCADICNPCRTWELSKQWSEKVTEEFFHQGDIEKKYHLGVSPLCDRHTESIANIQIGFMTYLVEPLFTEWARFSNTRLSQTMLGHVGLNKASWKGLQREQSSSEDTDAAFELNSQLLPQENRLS

| SMILES | IC50 [µM] |
| --- | --- |
| CN1CCN(c2ccc(-c3nc4c(c(C5CCCCC5)nn4C)c(=O)[nH]3)cc2)CC1 [Example 179, 3-Cyclohexyl-1-methyl-6-[4-(4-methyl-1-piperazinyl)phenyl]-1,5-dihydro-4H-pyrazolo[3,4-d]pyrimidin-4-one monomethanesulfonate] | ≤ 1 |
| COc1cc(N2CCC(N)CC2)ccc1-c1nc2c(c(C3CCCCC3)nn2C)c(=O)[nH]1 [Example 185, 6-[4-(4-Amino-1-piperidinyl)-2-methoxyphenyl]-3-cyclohexyl-1-methyl-1,5-dihydro-4H-pyrazolo[3,4-d]pyrimidin-4-one monomethanesulfonate] | ≤ 0.01 |
| CNC1CCN(c2ccc(-c3nc4c(c(C5CCCCC5)nn4C)c(=O)[nH]3)cc2)CC1 [Example 189, 3-Cyclohexyl-1-methyl-6-{4-[4-(methylamino)-1-piperidinyl]phenyl}-1,5-dihydro-4H-pyrazolo[3,4-d]pyrimidin-4-one monomethanesulfonate] | ≤ 1 |
| COc1cc(S(=O)(=O)N2CCS(=O)(=O)CC2)ccc1-c1nc2c(c(C3CCCCC3)nn2C)c(=O)[nH]1 [Example 191, 3-Cyclohexyl-6-{4-[(1,1-dioxido-4-thiomorpholinyl)sulfonyl]-2-methoxyphenyl}-1-methyl-1,5-dihydro-4H-pyrazolo[3,4-d]pyrimidin-4-one] | ≤ 1 |
| COc1cc(N2CCS(=O)(=O)CC2)ccc1-c1nc2c(c(C3CCCCC3)nn2C)c(=O)[nH]1 [Example 192, 3-Cyclohexyl-6-[4-(1,1-dioxido-4-thiomorpholinyl)-2-methoxyphenyl]-1-methyl-1,5-dihydro-4H-pyrazolo[3,4-d]pyrimidin-4-one] | ≤ 0.01 |
| CCn1nc(C2CCCCC2)c2c(=O)[nH]c(-c3ccc(N4CCN(C)CC4)cc3OC)nc21 [Example 194, 3-Cyclohexyl-1-ethyl-6-[2-methoxy-4-(4-methyl-1-piperazinyl)phenyl]-1,5-dihydro-4H-pyrazolo[3,4-d]pyrimidin-4-one] | ≤ 1 |
| CCn1nc(C2CCCCC2)c2c(=O)[nH]c(-c3ccc(N4CCC(NC)CC4)cc3OC)nc21 [Example 196] | ≤ 1 |
| COc1cc(S(=O)(=O)N2CCCN(C)CC2)ccc1-c1nc2c(C)nn(C3CCCCC3)c2c(=O)[nH]1 [Example 198, 1-Cyclohexyl-5-{2-methoxy-4-[(4-methyl-1,4-diazepan-1-yl)sulfonyl]phenyl}-3-methyl-1,6-dihydro-7H-pyrazolo[4,3-d]pyrimidin-7-one] | ≤ 1 |
| COc1cc(S(=O)(=O)N2CCC(O)CC2)ccc1-c1nc2c(C)nn(C3CCCCC3)c2c(=O)[nH]1 [Example 199, 1-Cyclohexyl-5-{4-[(4-hydroxy-1-piperidinyl)sulfonyl]-2-methoxyphenyl}-3-methyl-1,6-dihydro-7H-pyrazolo[4,3-d]pyrimidin-7-one] | ≤ 1 |
| COc1cc(S(=O)(=O)NCCO)ccc1-c1nc2c(C)nn(C3CCCCC3)c2c(=O)[nH]1 [Example 200, 4-(1-Cyclohexyl-3-methyl-7-oxo-6,7-dihydro-1H-pyrazolo[4,3-d]pyrimidin-5-yl)-N-(2-hydroxyethyl)-3-methoxybenzenesulfonamide] | ≤ 1 |
| CNS(=O)(=O)c1ccc(-c2nc3c(C)nn(C4CCCCC4)c3c(=O)[nH]2)c(OC)c1 [Example 201, 4-(1-Cyclohexyl-3-methyl-7-oxo-6,7-dihydro-1H-pyrazolo[4,3-d]pyrimidin-5-yl)-3-methoxy-N-methylbenzenesulfonamide] | ≤ 1 |
| COc1cc(S(=O)(=O)N2CCCNCC2)ccc1-c1nc2c(C)nn(C3CCCCC3)c2c(=O)[nH]1 [Example 203, 1-Cyclohexyl-5-[4-(1,4-diazepan-1-ylsulfonyl)-2-methoxyphenyl]-3-methyl-1,6-dihydro-7H-pyrazolo[4,3-d]pyrimidin-7-one monomethanesulfonate] | ≤ 1 |
| CNS(=O)(=O)c1ccc(-c2nc3c(c(C4CCCCC4)nn3C)c(=O)[nH]2)c(OC)c1 [Example 204, 4-(3-Cyclohexyl-1-methyl-4-oxo-4,5-dihydro-1H-pyrazolo[3,4-d]pyrimidin-6-yl)-3-methoxy-N-methylbenzenesulfonamide] | ≤ 1 |
| CCn1nc(C2CCCCC2)c2c(=O)[nH]c(-c3ccc(S(=O)(=O)N4CCC(O)CC4)cc3OC)nc21 [Example 207, 3-Cyclohexyl-1-ethyl-6-{4-[(4-hydroxy-1-piperidinyl)sulfonyl]-2-methoxyphenyl}-1,5-dihydro-4H-pyrazolo[3,4-d]pyrimidin-4-one] | ≤ 1 |
| CCn1nc(C2CCCCC2)c2c(=O)[nH]c(-c3ccc(S(=O)(=O)N4CCCN(C)CC4)cc3OC)nc21 [Example 208, 3-Cyclohexyl-1-ethyl-6-{2-methoxy-4-[(4-methyl-1,4-diazepan-1-yl)sulfonyl]phenyl}-1,5-dihydro-4H-pyrazolo[3,4-d]pyrimidin-4-one] | ≤ 1 |
| CCn1nc(C2CCCCC2)c2c(=O)[nH]c(-c3ccc(S(=O)(=O)N4CCCNCC4)cc3OC)nc21 [Example 209, 3-Cyclohexyl-6-[4-(1,4-diazepan-1-ylsulfonyl)-2-methoxyphenyl]-1-ethyl-1,5-dihydro-4H-pyrazolo[3,4-d]pyrimidin-4-one] | ≤ 1 |
| COc1cc(S(=O)(=O)N(C)CCN)ccc1-c1nc2c(C)nn(C3CCCCC3)c2c(=O)[nH]1 [Example 210-1, N-(2-aminoethyl)-4-(1-cyclohexyl-3-methyl-7-oxo-6,7-dihydro-1H-pyrazolo[4,3-d]pyrimidin-5-yl)-3-methoxy-N-methylbenzenesulfonamide] | ≤ 1 |
| CNCCNS(=O)(=O)c1ccc(-c2nc3c(C)nn(C4CCCCC4)c3c(=O)[nH]2)c(OC)c1 [Example 210-2, 4-(1-Cyclohexyl-3-methyl-7-oxo-6,7-dihydro-1H-pyrazolo[4,3-d]pyrimidin-5-yl)-3-methoxy-N-[2-(methylamino)ethyl]benzenesulfonamide] | ≤ 1 |
| COc1cc(S(=O)(=O)NCCN(C)C)ccc1-c1nc2c(C)nn(C3CCCCC3)c2c(=O)[nH]1 [Example 211, 4-(1-Cyclohexyl-3-methyl-7-oxo-6,7-dihydro-1H-pyrazolo[4,3-d]pyrimidin-5-yl)-N-[2-(dimethylamino)ethyl]-3-methoxybenzenesulfonamide] | ≤ 1 |
| CNCCN(C)S(=O)(=O)c1ccc(-c2nc3c(C)nn(C4CCCCC4)c3c(=O)[nH]2)c(OC)c1 [Example 212, 4-(1-Cyclohexyl-3-methyl-7-oxo-6,7-dihydro-1H-pyrazolo[4,3-d]pyrimidin-5-yl)-3-methoxy-N-methyl-N-[2-(methylamino)ethyl]benzenesulfonamide] | ≤ 1 |
| COc1cc(S(=O)(=O)N(C)CCO)ccc1-c1nc2c(C)nn(C3CCCCC3)c2c(=O)[nH]1 [Example 213, 4-(1-Cyclohexyl-3-methyl-7-oxo-6,7-dihydro-1H-pyrazolo[4,3-d]pyrimidin-5-yl)-N-(2-hydroxyethyl)-3-methoxy-N-methylbenzenesulfonamide] | ≤ 1 |
| COc1cc(S(=O)(=O)N2CCN(C)CC2)ccc1-c1nc2c(C)nn(C3CCCCC3)c2c(=O)[nH]1 [Example 214, 1-Cyclohexyl-5-{2-methoxy-4-[(4-methyl-1-piperazinyl)sulfonyl]phenyl}-3-methyl-1,6-dihydro-7H-pyrazolo[4,3-d]pyrimidin-7-one] | ≤ 1 |
| CNCCCN(C)S(=O)(=O)c1ccc(-c2nc3c(C)nn(C4CCCCC4)c3c(=O)[nH]2)c(OC)c1 [Example 215, 4-(1-Cyclohexyl-3-methyl-7-oxo-6,7-dihydro-1H-pyrazolo[4,3-d]pyrimidin-5-yl)-3-methoxy-N-methyl-N-[3-(methylamino)propyl]benzenesulfonamide] | ≤ 1 |
| COc1cc(S(=O)(=O)N2CCN(CCO)CC2)ccc1-c1nc2c(C)nn(C3CCCCC3)c2c(=O)[nH]1 [Example 216, 1-Cyclohexyl-5-(4-{[4-(2-hydroxyethyl)-1-piperazinyl]sulfonyl}-2-methoxyphenyl)-3-methyl-1,6-dihydro-7H-pyrazolo[4,3-d]pyrimidin-7-one] | ≤ 1 |
| COc1cc(S(=O)(=O)N2CCNCC2)ccc1-c1nc2c(C)nn(C3CCCCC3)c2c(=O)[nH]1 [Example 217, 1-Cyclohexyl-5-[2-methoxy-4-(1-piperazinylsulfonyl)phenyl]-3-methyl-1,6-dihydro-7H-pyrazolo[4,3-d]pyrimidin-7-one] | ≤ 1 |
| CCN1CCN(S(=O)(=O)c2ccc(-c3nc4c(C)nn(C5CCCCC5)c4c(=O)[nH]3)c(OC)c2)CC1 [Example 218, 1-Cyclohexyl-5-{4-[(4-ethyl-1-piperazinyl)sulfonyl]-2-methoxyphenyl}-3-methyl-1,6-dihydro-7H-pyrazolo[4,3-d]pyrimidin-7-one] | ≤ 1 |
| COc1cc(S(=O)(=O)NC2CCNCC2)ccc1-c1nc2c(C)nn(C3CCCCC3)c2c(=O)[nH]1 [Example 220, 4-(1-Cyclohexyl-3-methyl-7-oxo-6,7-dihydro-1H-pyrazolo[4,3-d]pyrimidin-5-yl)-3-methoxy-N-(4-piperidinyl)benzenesulfonamide monohydrochloride] | ≤ 1 |
| CNC1CCN(S(=O)(=O)c2ccc(-c3nc4c(C)nn(C5CCCCC5)c4c(=O)[nH]3)c(OC)c2)CC1 [Example 222, 1-Cyclohexyl-5-(2-methoxy-4-{[4-(methylamino)-1-piperidinyl]sulfonyl}phenyl)-3-methyl-1,6-dihydro-7H-pyrazolo[4,3-d]pyrimidin-7-one] | ≤ 1 |
| COc1cc(NC2CCNCC2)ccc1-c1nc2c(C)nn(C3CCCCC3)c2c(=O)[nH]1 [Example 224, 1-Cyclohexyl-5-[2-methoxy-4-(4-piperidinylamino)phenyl]-3-methyl-1,6-dihydro-7H-pyrazolo[4,3-d]pyrimidin-7-one] | ≤ 0.01 |
| COCCNc1ccc(-c2nc3c(C)nn(C4CCCCC4)c3c(=O)[nH]2)c(OC)c1 [Example 225, 1-Cyclohexyl-5-{2-methoxy-4-[(2-methoxyethyl)amino]phenyl}-3-methyl-1,6-dihydro-7H-pyrazolo[4,3-d]pyrimidin-7-one] | ≤ 0.01 |
